Legend:
Assay in all cases: area under concentration-response curve (viability) (AUC (a.u.)); higher = less active
Conditions in all cases: 48 h
[1] = test system: CU-ACC1
Outline: (§1)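 After 48 h of treatment with 23 nL of each library compound at 11 concentrations, three adrenocortical carcinoma cell lines in 1,536-well plates (500–1,000 cells/well, 5 µL medium) were given CellTiter-Glo for 15 minutes at room temperature. Luminescence was then read and normalised per plate to vehicle and empty-well controls. AC50 and area under the curve were drawn from fitted concentration-response curves of inhibitory or non-responding classes only.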

[2] = test system: CU-ACC2
Outline: as §1

[3] = test system: NCI-H295R
Outline: as §1

SMILES	area under concentration-response curve [1]	area under concentration-response curve [2]	area under concentration-response curve [3]
Nc1cccc(-c2cc3c(Oc4cccc(O)c4)ncnc3[nH]2)c1	524	534	530
OC(CCN1CCCCC1)(C2CC\3CC2\C=C3)C4=CC=CC=C4 (stereo not given)	522	582	519
CC(C)[C@H]1C(=O)N[C@@H](CCCN=C(N)N)C(=O)NCC(=O)N[C@@H](CC(=O)O)C(=O)N[C@H](Cc2ccccc2)C(=O)N1C	443	624	601
CN1C(=O)[C@@H](NC(=O)[C@H](CCC(F)(F)F)[C@H](CCC(F)(F)F)C(N)=O)\N=C(C2=CC=CC=C2)/C3=CC=CC=C13	514	610	530
COCCNc1cc(NC(=O)N2CCCc3cc(CN4CCN(C)CC4=O)c(C=O)nc32)ncc1C#N	552	550	564
O=C(O)C1CCCN(CCC=C(c2ccccc2)c2ccccc2)C1 (stereo not given)	540	520	539
CN(CCO)C1CCN(c2ccc(Nc3ncc4c5ccnc(F)c5n(C5CCCC5)c4n3)nc2)CC1	467	658	579
COc1ccc2c(OCc3nnc4ccc(-c5ccccc5)nn34)ccnc2c1	520	609	589
CCCCC(F)(F)[C@@]1(O)CC[C@H]2[C@@H](CC(=O)[C@@H]2CCCCCCC(=O)O)O1	494	599	541
COc1cc2c(cc1OC)CC(=O)N(CCCN(C)C[C@H]1Cc3cc(OC)c(OC)cc31)CC2	486	601	542
CCN1C[C@]2(OC(=O)c3ccccc3NC(C)=O)CC[C@H](OC)[C@@]34[C@@H]2C[C@@H]([C@@H]13)[C@@]1(O)C[C@H](OC)[C@H]2C[C@@H]4[C@]1(O)[C@H]2OC	416	499	429
C[C@@H]1[C@H]\2[C@H](O)[C@H]3[C@H](N(C)C)\C(=C(C(N)=O)/C(=O)[C@@]3(O)\C(=C2C(=O)C4=C(O)C=CC=C14)O)O	406	325	403
O=C(NC1CCOCC1)c1ccc(-c2cc(-c3c[nH]nc3-c3ccccn3)ccn2)cc1	429	497	453
CC(C)(C)C(=O)CN1C(=O)[C@H](NC(=O)Nc2cccc(C(=O)O)c2)CN(C2CCCCC2)c2ccccc21	518	612	559
CCCc1nc2c(C)cc(-c3nc4ccccc4n3C)cc2n1Cc1ccc(-c2ccccc2C(=O)O)cc1	561	639	599
NC/1=N/C(=O)N(/C=N1)[C@@H]2O[C@H](CO)[C@@H](O)[C@H]2O	469	522	504
C[C@@H]\1/N=C(/N)NC(=N1)\N(C)C	407	596	549
Cn1c(CNc2ccc(C(=N)N)cc2)nc2cc(C(=O)N(CCC(=O)O)c3ccccn3)ccc21	715	929	834
C[S+]([O-])(=O)NC1=CC2=C(C=C1OC3=CC=CC=C3)C(=O)\C(=C/O2)NC=O	477	508	487
N#C/N=C(\NCCCCCCOc1ccc(Cl)cc1)Nc1ccncc1	269	367	425
CNC(=O)[C@@H](NC(=O)[C@H](CC(C)C)[C@H](O)C(=O)NO)C(C)(C)C	513	615	563
F\C1=C\N(C2CCCO2)C(=O)NC1=O (stereo not given)	512	612	511
NC(=O)c1cccc(-c2cccc(OC(=O)NC3CCCCC3)c2)c1	480	485	470

SMILES	area under concentration-response curve [1]	area under concentration-response curve [2]	area under concentration-response curve [3]
CC(=O)O[C@H]1C[C@@H]2CC[C@@H]3[C@H](CC[C@@]4(C)[C@H]3C[C@H]([N+]3(C)CCCCC3)[C@@H]4OC(C)=O)[C@@]2(C)C[C@@H]1[N+]1(C)CCCCC1	501	584	505
COc1ccc(C(=O)N2CCN(C(=O)/C=C/c3ccc(Br)cc3)CC2)cc1	499	638	536
C=C(C)[C@@H]1CC[C@]2(C(=O)O)CC[C@]3(C)[C@H](CC[C@@H]4[C@@]5(C)CC[C@H](O)C(C)(C)[C@@H]5CC[C@]43C)[C@@H]12	541	646	587
CC(C)Cc1ccc([C@@H](C)C(=O)N[S+](C)(=O)[O-])cc1	492	586	553
O=C1NC(=O)/C(=C/c2cccc(C(F)(F)F)c2)S1	463	511	449
Cn1cc(-c2nc(N[C@@H]3CCCC[C@@H]3N)c(F)c3c2C(=O)NC3)cn1	623	719	660
CC(=O)N1CCC[C@H]1C(=O)N[C@@H](Cc1c[nH]cn1)C(=O)N[C@@H](CO)C(=O)N[C@@H](CS)C(=O)N[C@@H](CC(N)=O)C(N)=O	382	527	498
COc1cc(SC)ccc1C(=O)N1CCC(Cc2ccccc2)CC1	522	501	538
C[C@H](O)[C@H]1[C@@H]2[C@H](C)C(=C(\N2C1=O)C(O)=O)/S[C@@H]3CN[C@H](CN[S+](N)([O-])=O)C3	516	643	578
N[S+](=O)([O-])c1cc2c(cc1Cl)NC(C(Cl)Cl)N[S+]2(=O)[O-] (stereo not given)	477	591	536
CCNCc1nc2c(N)nc3ccccc3c2n1CC(C)(C)O	500	556	516
CCN([C@H]1CC[C@@H](CC1)N(C)CCOC)C2=C(C)C(=CC(=C2)C#CCN3CCOCC3)C(=O)NC\C4=C(C)\C=C(\C)NC4=O	536	500	552
COC(c1ccccc1)(c1ccccc1)[C@H](Oc1nc(C)cc(C)n1)C(=O)O	531	586	578
C/C1=C/C[C@@H](/C(C)=C/c2csc(C)n2)OC(=O)C[C@H](O)C(C)(C)C(=O)[C@H](C)[C@@H](O)[C@@H](C)CCC1	480	567	426
CC[S+](=O)([O-])N1CCC([C@@H](C)n2c(C)c(/C(O)=N/Cc3c(OC)cc(C)nc3O)c3ccccc32)CC1	509	605	537
O=C(NCc1ccccc1)[C@H](Cc1ccccc1)NC(=O)[C@H]1O[C@@H]1C(=O)NCCc1ccc(O)cc1	495	557	524
COc1cc2c(cc1-c1c(C)noc1C)ncc1[nH]c(=O)n([C@H](C)c3ccccn3)c12	490	515	459
O=C(Nc1ccc2c(c1)CCN(Cc1ncn[nH]1)C2)c1ccccc1-c1ccc(C(F)(F)F)cc1	374	505	476
O=C(Oc1ccc([N+](=O)[O-])cc1)N1CCC(C(O)(c2ccc3c(c2)OCO3)c2ccc3c(c2)OCO3)CC1	495	575	535
COc1cc2nccc(Oc3ccc(NC(=O)Nc4ccc(F)cc4F)c(F)c3)c2cc1OC	548	623	515
Nc1nc(N)nc(-c2cc(Cl)ccc2Cl)n1	409	441	410
CN(C)C1=CC(=CC=C1)C\2=C\3C(=O)N(NC3=C/C(=O)N2C)C4=CC=CC=C4Cl	513	512	533
